Assay in all cases: Antibacterial and antifungal activity, paper disc method
Type in all cases: cell-based

Test [1] has as its system Tyromyces palustris IFO-30339. To be noted: read-out: diameter of the growth inhibition circle, Tyr.(IFO-30339). The method, then: (§1) Antibacterial and antifungal activity tests for various bacteria and fungi were conducted. The tests were carried out by the conventional paper disc method. That is, a paper disc (d=8 mm) was dipped in aqueous or methanol solution of the compound of the present invention (concentration : 1,000 µg/ml), then dried and used.
(§2) As bacteria to be tested, • ① Staphylococcus aureus IFO-12732 [hereinafter abbreviated to Sta.] • ② Bacillus subtilis IFO-13719 [Bac.] • ③ Escherichia coli IFO-3301 [Esc.] were used. As yeast to be tested, • ④ Saccharomyces cerevisiae IFO-0210 [Sac.] • ⑤ Candida albicans IFO-0583 [Can.] were used. As fungi to be tested, • ⑥ Aspergillus niger IFO-4407 [Asp.] • ⑦ Penicillium citrinum IFO-7784 [Pen.] • ⑧ Tyromyces palustris IFO-30339 [Tyr.] • ⑨ Coriolus versicolor IFO-30340 [Cor.] were used. Among the above fungi, Tyr. and Cor. are wood rot fungi.
(§3) As the test media, agar media shown below were used. That is, TSA (Trypticase Soy Agar) medium was used for Sta., Bac. and Esc.; YNB (Yeast Nitrogen Base) agar medium was used for Sac. and Can.; SDA (Sabouraud Dextrose Agar) medium was used for Asp. and Pen.; and PDA (Potato Dextrose Agar) medium was used for Try. and Cor.
(§4) The determination of antibacterial and antifungal effectiveness was carried out by measuring the diameter of the growth inhibition circle generated on the circumference of the paper disc. The indication of effectiveness is given as follows: -: no growth inhibition circle was observed. +: diameter of the growth inhibition circle was 9 - 20 mm ++: diameter of the growth inhibition circle was 21 - 40 mm +++: diameter of the growth inhibition circle was 41 mm or more

Test [2] relates to Candida albicans IFO-0583. The method, then:
as §1, §2, §3, §4

Test [3] has as its system Bacillus subtilis IFO-13719. Conditions: Bacillus subtilis. The method, then: as §1, §2, §3, §4
In test [4] the test system is Coriolus versicolor IFO-30340. To be noted: Trametes versicolor. The method, then: as §1, §2, §3, §4
The subject of test [5] is Saccharomyces cerevisiae IFO-0210. The method, then:
as §1, §2, §3, §4

Test [6] deals with Staphylococcus aureus IFO-12732. The method, then: as §1, §2, §3, §4
The subject of test [7] is Aspergillus niger IFO-4407. The method, then: as §1, §2, §3, §4
The test system of test [8] is Escherichia coli IFO-3301. Conditions: for zone of inhibition at 1000 µg/mL: Escherichia coli. The method, then:
as §1, §2, §3, §4

Test [9] deals with Penicillium citrinum IFO-7784. The method, then: as §1, §2, §3, §4
[10] abbreviates: paper disc d=8 mm dipped in 1,000 µg/ml solution, PDA medium.
Setting [11] is: IFO0583, paper disc d=8 mm dipped in 1,000 µg/ml solution, YNB agar medium, read-out: diameter of the growth inhibition circle, Can.(IFO-0583).
Where [12] appears, read: IFO13719, paper disc d=8 mm dipped in 1,000 µg/ml solution, TSA medium, read-out: diameter of the growth inhibition circle, Bac.(IFO-13719).
[13] abbreviates: IFO30340, paper disc d=8 mm dipped in 1,000 µg/ml solution, PDA medium, read-out: diameter of the growth inhibition circle, Cor.(IFO-30340).
[14] abbreviates: IFO0210, paper disc d=8 mm dipped in 1,000 µg/ml solution, YNB agar medium, read-out: diameter of the growth inhibition circle, Sac.(IFO-0210).
The mark [15] stands for this setting: IFO12732, paper disc d=8 mm dipped in 1,000 µg/ml solution, TSA medium, read-out: diameter of the growth inhibition circle, Sta.(IFO-12732).
The mark [16] stands for this setting: IFO4407, paper disc d=8 mm dipped in 1,000 µg/ml solution, SDA medium, read-out: diameter of the growth inhibition circle, Asp.(IFO-4407).
Where [17] appears, read: IFO3301, paper disc d=8 mm dipped in 1,000 µg/ml solution, TSA medium, read-out: diameter of the growth inhibition circle, Esc.(IFO-3301).
Setting [18] is: IFO7784, paper disc d=8 mm dipped in 1,000 µg/ml solution, SDA medium, read-out: diameter of the growth inhibition circle, Pen.(IFO-7784).
The mark [19] stands for this setting: paper disc d=8 mm dipped in 1,000 µg/ml solution, TSA medium.

Read-outs that look alike come from different tables or passages of the source. Some results are limits rather than exact numbers.

Consider `O=C(C#CI)Nc1cccc(F)c1` [Example 17, N-(3-Fluorophenyl)-3-iodopropiolamide], for which the zone of inhibition at 1000 µg/mL in [1] (setting [10]) was more than 41 mm; in [2] (setting [11]), 21 to 40 mm; in [3] (setting [12]), 21 to 40 mm; in test [4] (setting [13]), more than 41 mm; in test [5] (setting [14]) it was 21 to 40 mm; in [6] (setting [15]), 21 to 40 mm. In addition, the zone of inhibition at 1000 µg/mL in test [7] (setting [16]) is 21 to 40 mm; in [8] (setting [17]) it was 9 to 20 mm; in [9] (setting [18]) it was more than 41 mm.

In the case of `O=C(C#CI)Nc1ccc(Cl)cc1` [Example 24, N-(4-Chlorophenyl)-3-iodopropiolamide], the zone of inhibition at 1000 µg/mL in test [1] (setting [10]) was more than 41 mm; in [2] (setting [11]), 21 to 40 mm; in [3] (setting [12]), 9 to 20 mm; in test [4] (setting [13]) it was more than 41 mm; in test [5] (setting [14]), 21 to 40 mm; in test [6] (setting [15]), 21 to 40 mm. Moreover, the figures for the zone of inhibition at 1000 µg/mL in [7] (setting [16]), in test [8] (setting [17]) and in test [9] (setting [18]) were 21 to 40 mm, 9 to 20 mm and more than 41 mm, respectively.

As for `CCCCN(CCCC)C(=O)C#CI` [Example 18, N,N-Di(n-butyl)-3-iodopropiolamide], the zone of inhibition at 1000 µg/mL was more than 41 mm in test [1] (setting [10]); 21 to 40 mm in test [2] (setting [11]); 9 to 20 mm in test [3] (setting [12]); more than 41 mm in [4] (setting [13]); 21 to 40 mm in test [5] (setting [14]); 21 to 40 mm in test [6] (setting [15]). Also, the zone of inhibition at 1000 µg/mL in test [7] (setting [16]) was 21 to 40 mm; in test [9] (setting [18]), more than 41 mm. For the same compound, the “diameter of the growth inhibition circle, Esc.(IFO-3301)” value in test [8] (setting [19]) was “-”.

Take `C=CCNC(=O)C#CI` [Example 23, N-Allyl-3-iodopropiolamide]: the zone of inhibition at 1000 µg/mL is more than 41 mm in test [1]; 21 to 40 mm in [2] (IFO0583, read-out: diameter of the growth inhibition circle, Can.(IFO-0583)); 9 to 20 mm in [3] (IFO13719, read-out: diameter of the growth inhibition circle, Bac.(IFO-13719)); more than 41 mm in [4] (IFO30340, read-out: diameter of the growth inhibition circle, Cor.(IFO-30340)); 21 to 40 mm in test [5] (IFO0210, read-out: diameter of the growth inhibition circle, Sac.(IFO-0210)); 21 to 40 mm in test [6] (IFO12732, read-out: diameter of the growth inhibition circle, Sta.(IFO-12732)). Besides, the zone of inhibition at 1000 µg/mL in test [7] (IFO4407, read-out: diameter of the growth inhibition circle, Asp.(IFO-4407)) was 21 to 40 mm; in test [8] (IFO3301, read-out: diameter of the growth inhibition circle, Esc.(IFO-3301)), 9 to 20 mm; in test [9] (IFO7784, read-out: diameter of the growth inhibition circle, Pen.(IFO-7784)), more than 41 mm.

As to `O=C(C#CI)Nc1cccc(Cl)c1` [Example 3, N-(3-Chlorophenyl)-3-iodopropiolamide], the zone of inhibition at 1000 µg/mL in test [1] (setting [10]) was more than 41 mm; in test [2] (setting [11]) it was 21 to 40 mm; in [3] (setting [12]) it was 21 to 40 mm; in test [4] (setting [13]), more than 41 mm; in test [5] (setting [14]) it was 21 to 40 mm; in test [6] (setting [15]), 21 to 40 mm. Further, the values for the zone of inhibition at 1000 µg/mL in [7] (setting [16]), in test [8] (setting [17]) and in [9] (setting [18]) were 21 to 40 mm, 9 to 20 mm and more than 41 mm, respectively.

For the compound `CC1COCC(C)N1C(=O)C#CI` (stereo not drawn) [Example 20, 4-(3-Iodopropioloyl)-3,5-dimethylmorpholine], the zone of inhibition at 1000 µg/mL is more than 41 mm in test [1] (setting [10]); 9 to 20 mm in test [2] (setting [11]); 9 to 20 mm in [3] (setting [12]); more than 41 mm in [4] (setting [13]); 21 to 40 mm in test [5] (setting [14]); 21 to 40 mm in test [6] (setting [15]). For the same compound, the zone of inhibition at 1000 µg/mL in test [7] (setting [16]) is 21 to 40 mm; in [9] (setting [18]), more than 41 mm. The “diameter of the growth inhibition circle, Esc.(IFO-3301)” value in test [8] (setting [19]) is “-”.

For the compound `O=C(C#CI)NCCc1ccccc1` [Example 16, N-(2-Phenylethyl)-3-iodopropiolamide], the zone of inhibition at 1000 µg/mL in [1] (setting [10]) was more than 41 mm; in test [2] (setting [11]) it was 21 to 40 mm; in test [3] (setting [12]) it was 21 to 40 mm; in test [4] (setting [13]), more than 41 mm; in test [5] (setting [14]), more than 41 mm; in [6] (setting [15]) it was 21 to 40 mm. The results for the zone of inhibition at 1000 µg/mL in test [7] (setting [16]), in test [8] (setting [17]) and in test [9] (setting [18]) were 21 to 40 mm, 9 to 20 mm and more than 41 mm, respectively.

Turning to `O=C(C#CI)N1CCN(c2ccccc2)CC1` [Example 21, 1-(3-Iodopropioloyl)-4-phenylpiperazine], the zone of inhibition at 1000 µg/mL in test [1] (setting [10]) was more than 41 mm; in [2] (setting [11]), 21 to 40 mm; in [3] (setting [12]), 9 to 20 mm; in test [4] (setting [13]), more than 41 mm; in test [5] (setting [14]) it was 21 to 40 mm; in test [6] (setting [15]), 21 to 40 mm. Besides, the zone of inhibition at 1000 µg/mL in test [7] (setting [16]) is 21 to 40 mm; in test [9] (setting [18]), more than 41 mm. The “diameter of the growth inhibition circle, Esc.(IFO-3301)” value in test [8] (setting [19]) is listed as “-”.

For the compound `O=C(C#CI)NC1CCCCC1` [Example 22, N-Cyclohexyl-3-iodopropiolamide], the zone of inhibition at 1000 µg/mL in [1] (setting [10]) is more than 41 mm; in [2] (setting [11]) it was 21 to 40 mm; in [3] (setting [12]), 9 to 20 mm; in test [4] (setting [13]) it was more than 41 mm; in [5] (setting [14]) it was 21 to 40 mm; in [6] (setting [15]), 21 to 40 mm. The zone of inhibition at 1000 µg/mL in [7] (setting [16]) is 21 to 40 mm; in [8] (setting [17]), 9 to 20 mm; in test [9] (setting [18]), more than 41 mm.

Regarding `O=C(C#CI)Nc1ccc(Cl)cc1Cl` [Example 25, N-(2,4-Dichlorophenyl)-3-iodopropiolamide], the zone of inhibition at 1000 µg/mL was more than 41 mm in test [1] (setting [10]); 21 to 40 mm in test [2] (setting [11]); 9 to 20 mm in [3] (setting [12]); more than 41 mm in [4] (setting [13]); 21 to 40 mm in test [5] (setting [14]); 21 to 40 mm in test [6] (setting [15]). Moreover, the figures for the zone of inhibition at 1000 µg/mL in test [7] (setting [16]), in test [8] (setting [17]) and in test [9] (setting [18]) were 21 to 40 mm, 9 to 20 mm and more than 41 mm, respectively.

As to `O=C(C#CI)Nc1cccc(C(F)(F)F)c1` [Example 26, N-(3-Trifluoromethylphenyl)-3-iodopropiolamide], the zone of inhibition at 1000 µg/mL is 21 to 40 mm in test [1] (setting [10]); 21 to 40 mm in test [2] (setting [11]); 9 to 20 mm in [3] (setting [12]); more than 41 mm in test [4] (setting [13]); 21 to 40 mm in test [5] (setting [14]); 21 to 40 mm in [6] (setting [15]). In addition, the zone of inhibition at 1000 µg/mL in test [7] (setting [16]) is 21 to 40 mm; in test [8] (setting [17]), 9 to 20 mm; in [9] (setting [18]), more than 41 mm.

For `O=C(C#CI)N1CCCCC1` [Example 19, 1-(3-Iodopropioloyl)piperidine], the zone of inhibition at 1000 µg/mL was more than 41 mm in test [1] (setting [10]); 21 to 40 mm in [2] (setting [11]); 21 to 40 mm in test [3] (setting [12]); more than 41 mm in test [4] (setting [13]); 21 to 40 mm in test [5] (setting [14]); 21 to 40 mm in [6] (setting [15]). Besides, the values for the zone of inhibition at 1000 µg/mL in test [7] (setting [16]), in [8] (setting [17]) and in test [9] (setting [18]) were 21 to 40 mm, 9 to 20 mm and more than 41 mm, respectively.

The record behind these values is patent publication EP0519427A2, “N-substituted-3-iodopropiolamide, production and use thereof” (priority 1991, dated 1992).
